This series in a line: in vitro. Conditions: human, hela cells, % viability.

Structures are written as SMILES.

The term viability denotes a read-out of living cells in per cent, often relative to untreated cells. Regarding `Nc1nc(SCC(=O)NCc2ccc3c(c2)OCO3)n[nH]1` [CBK266580], the viability at 28.5 h, 10 µM came to 101%.
Regarding `Cc1nn(CC(=O)NC2CCC2)c(=O)c2cc3ccsc3n12` [CBK284103], the viability at 28.5 h, 10 µM was 103%.
For the compound `COCCNC(=O)c1cnn2c(C)c(Cc3cccc(C#N)c3)c(C)nc12` [CBK162096], the viability at 28.5 h, 10 µM was determined as 94.6%.
As for `Cc1ccc(C(=O)N2C[C@H]3CC[C@](O)(c4ccc(F)cc4)[C@H]3C2)o1` [CBK285267], the viability at 28.5 h, 10 µM is 95%.
Take `CC(C)n1cc(C(=O)N2CCCC(c3cc4ncccc4[nH]3)C2)cn1` (centres unmarked) [CBK283419]: the viability at 28.5 h, 10 µM worked out at 88.2%.
As for `CCC(C)(C)c1ccc(S(=O)(=O)N2CCN(CCCOC3CCCCO3)CC2)cc1` (centres unmarked) [CBK063135], the viability at 28.5 h, 10 µM amounted to 96.9%.
Turning to `N[C@H]1CCN2C(=O)c3cc(-c4ccc(F)cc4F)ccc3NC(=O)[C@H]12` [CBK289345], the viability at 28.5 h, 10 µM stood at 94.4%.
Turning to `O=C(CCc1ccc(F)cc1)N1CCC(CC(=O)N2CCN(c3ccccc3)CC2)CC1` [CBK286245], the viability at 28.5 h, 10 µM is 108%.
`Cn1nc(C(=O)Nc2ccccc2Oc2ccc(F)cc2)ccc1=O` [CBK281430]: the viability at 28.5 h, 10 µM is 91%.
As to `Nc1nc2c(cnn2[C@H]2C[C@@H](O)[C@@H](CO)O2)c(=O)[nH]1` [CBK201223], the viability at 28.5 h, 10 µM amounted to 101%.
With `CSCCC(Nc1ncnc2c1c(C)c(C)n2Cc1ccco1)C(=O)O` (centres unmarked) [CBK307568] the figure was 92.3%.
For the compound `Cc1ccc(-c2n[nH]c(=S)n2CCC(=O)NCc2ccc(-c3csc(C)n3)s2)cc1` [CBK297924], the viability at 28.5 h, 10 µM is 84.5%.
Turning to `COc1ccc(C2=NNC(=O)c3cc4sccc4n3C2)cc1` [CBK284205], the viability at 28.5 h, 10 µM stood at 93.1%.
With `CCSC1CCC(N(C)CC(=O)NCc2ccco2)C1` (centres unmarked) [CBK304823] the figure was 84.3%; with `COc1ccc(Cn2c(-c3ccc(OC)c(O)c3)nc3ccccc32)cc1O` [CBK263370], 108%; with `N#C/C(=C/c1cn(CC(=O)O)c2ccccc12)c1ccc(C(=O)O)cc1` [CBK268977], 111%.
On to `CNCCOCC(O)CSc1ccccc1` (centres unmarked) [CBK262704], for which the viability at 28.5 h, 10 µM amounted to 100%.
`Cc1ccc(S(=O)(=O)N2CCN(CCCc3ccccc3)CC2)cc1` [CBK263453]: the viability at 28.5 h, 10 µM is 95.2%.
As to `Cn1cc(CCCC(=O)NC2CCCOC2)c2ccccc21` (centres unmarked) [CBK282486], the viability at 28.5 h, 10 µM is 81.8%.
As for `COc1cc(NC(=O)N(C)C2CCN(C)C2)cc(OC)c1OC` (centres unmarked) [CBK156022], the viability at 28.5 h, 10 µM was determined as 101%.
Regarding `Cc1nc(-c2ccc(CNC(=O)C(Cc3ccccc3)N3CCCC3)cc2)ccc1C(N)=O` (centres unmarked) [CBK286017], the viability at 28.5 h, 10 µM was found to be 92.6%.
In the case of `O=C(C1CC1)N1CCC2(CC1)Nc1cccnc1-n1cccc12` [CBK284504], the viability at 28.5 h, 10 µM stood at 107%.
`CC(C)(C)c1ccc(-n2cc(-c3ccc(F)cc3F)nn2)cc1` [CBK094818]: the viability at 28.5 h, 10 µM came to 85.4%.
The value for `Cn1c(=O)n(CC(=O)NCc2ccc(F)cc2)c2cccnc21` [CBK283908] was 86.6%; that for `Cc1cc(Cl)ccc1CNC(=O)c1ccc(-c2ccoc2)nc1` [CBK156254] was 101%.
On to `Cc1cccnc1C1(O)CCN(C(=O)NCc2ccccc2)CC1` [CBK282293], for which the viability at 28.5 h, 10 µM came out at 88%.
With `COc1ccc(NC(=O)CCSCCC(=O)O)cc1S(=O)(=O)N1CCCCC1` [CBK296655] the figure was 80.3%.
In the case of `COc1nccnc1-c1cc2ccccc2s1` [CBK106781], the viability at 28.5 h, 10 µM was 87.7%.
With `CC(=O)OC1CCN(C(=O)c2cccc(C#N)c2)CC1` [CBK304648] the figure was 93.3%.
`Nc1ncc(-c2ccc(OC(F)(F)F)cc2)c2cccnc12` [CBK067594]: the viability at 28.5 h, 10 µM came to 98.7%.
With `CC(C)c1ccc(/C=C/C(=O)NCCC(N)=O)cc1` [CBK149646] the figure was 81.9%.
Consider `COCCCn1c(=O)[nH]c2ncc(-c3cc(C(C)C)ccc3OC)nc21` [CBK064351], for which the viability at 28.5 h, 10 µM stood at 82.8%.

The values above are taken from article PMC12040169 (PLOS Biology, 2025).
